Experimental data published in publication PMC9822358, “New Structures, Spectrometric Quantification, and Inhibitory Properties of Cardenolides from Asclepias curassavica Seeds” (Molecules, 2022).

Key:
[1] = biological target: porcine Na^+/K^+-ATPase (purified NKA from S. domesticus cerebral cortex); test: Na+/K+ ATPase (NKA) inhibitory activity assay (inorganic phosphate released from ATP, absorbance at 700 nm); type: biochemical; details: unadapted NKA from Sus domesticus; read-out: IC50 against porcine NKA
Method: We tested the inhibitory capacity of the new compounds 1 and 2 and the known cardenolides 5–10 against porcine NKA. We used an in vitro assay to determine the IC50 of each compound and used ouabain as a reference.
We quantified the NKA inhibitory activity of the isolated cardenolides using purified NKA from S. domesticus cerebral cortex (Sigma-Aldrich-A7510-5UN, Steinheim, Germany), following protocols standardized by Petschenka et al.. Briefly, porcine NKA was diluted in di-water to a final assay concentration of 0.01 U/mL. The ATPase was exposed to exponentially decreasing concentrations from 10^−3 to 10^−8 M of ouabain (Sigma-Aldrich, O3125-1G, Steinheim, Germany) or the cardenolides 1–2 and 5–10. […] The NKA activity after cardenolide exposure was determined by quantification of inorganic phosphate released from enzymatically hydrolysed ATP. The […] levels were measured by photometric determination, reading the absorbance at 700 nm with a microplate reader (BMG Clariostar, BMG Labtech, Germany). The absorbance of each reaction was corrected with the respective background, and the inhibition curves were plotted in R studio [61] with log10-transformed cardenolide concentration versus percent of uninhibited control, with top and bottom asymptotes set to 1 and 0, respectively. […] IC50 values for each cardenolide and ouabain were also calculated from the inhibition curves using R studio. […]

porcine NKA = tested on: porcine NKA; set-up: method as in PMID 33850021; details: cited from earlier work

In the case of `C[C@H]1O[C@@H](O[C@H]2CC[C@@]3(C=O)[C@@H](CC[C@@H]4[C@@H]3CC[C@]3(C)[C@@H](C5=CC(=O)OC5)CC[C@]43O)C2)[C@H](O)[C@H](O)[C@@H]1O` [Compound 9, gofruside], the IC50 [1] is reported as 96.5 nM.
`CC1CC(O)C2(O)OC3CC4(C=O)C(CCC5C4CCC4(C)C(C6=CC(=O)OC6)C(O)CC54O)CC3OC2O1` (stereo not drawn) [Compound 10, 16α-hydroxycalotropin] showed an IC50 [1] of 3670 nM.
For `C[C@@H]1C[C@H](O)[C@]2(O)O[C@@H]3C[C@@]4(C=O)[C@@H](CC[C@@H]5[C@@H]4CC[C@]4(C)[C@@H](C6=CC(=O)OC6)CC[C@]54O)C[C@H]3O[C@@H]2O1` [calotropin], the “log10 IC50 against porcine NKA” value (porcine NKA; log10 of IC50 in M) is listed as −6.56 and the IC50 (porcine NKA; read-out: IC50 against porcine NKA) is listed as 270 nM.
